The record followed here is patent US7649004B2, “Pyridine derivatives” (Pfizer, Inc., priority 2004, dated 2010).

Molecules are shown by their SMILES.

This assay concerns the target T1, Human Nav1.8 (Homo sapiens, UniProt Q9Y5Y9).
T1 construct: expressed in transfected cells; host or cells: HEK293
Briefly: VIPR assay for Nav1.8 compounds (FRET membrane potential, deltamethrin-opened channels). The class given is cell-based. To be noted: HEK293 cells expressing human Nav1.8; deltamethrin as opener; read-out: affinity for the NaV1.8 channel (binding affinity; IC50 from VIPR assay). The text has this: The ability of the pyridine derivatives of the formula (I) to inhibit the NaV1.8 channel may be measured using the assay described below.
VIPR Assay for Nav1.8 Compounds
This screen is used to determine the effects of compounds on tetrodotoxin-resistant (TTX-R) sodium channels in Human Nav1.8 (HEK293) expressing cell line, utilising the technology of Aurora's fluorescent Voltage/Ion Probe Reader (VIPR). This experiment is based on FRET (Fluorescence Resonance Energy Transfer) and uses two fluorescent molecules. The first molecule, Oxonol (DiSBAC2(3)), is a highly fluorescent, negatively charged, hydrophobic ion that “senses” the trans-membrane electrical potential. […] The voltage dependent redistribution is transduced into a ratiometric fluorescent readout via a second fluorescent molecule (Coumarin (CC2-DMPE)) that binds specifically to one face of the plasma membrane and functions as a FRET partner to the mobile voltage-sensing ion. […]
2. […] Once the incubation is complete, the cells are ready to be assayed using the VIPR for sodium addback membrane potential.
The data was analyzed and reported as normalised ratios of intensities measured in the 460 nm and 580 nm channels. […]
Rf/Ri ratio values are plotted using Excel Labstats (curve fit) or analysed via ECADA to determine an IC50 value for each compound.

T1 sequence (Q9Y5Y9 whole entry): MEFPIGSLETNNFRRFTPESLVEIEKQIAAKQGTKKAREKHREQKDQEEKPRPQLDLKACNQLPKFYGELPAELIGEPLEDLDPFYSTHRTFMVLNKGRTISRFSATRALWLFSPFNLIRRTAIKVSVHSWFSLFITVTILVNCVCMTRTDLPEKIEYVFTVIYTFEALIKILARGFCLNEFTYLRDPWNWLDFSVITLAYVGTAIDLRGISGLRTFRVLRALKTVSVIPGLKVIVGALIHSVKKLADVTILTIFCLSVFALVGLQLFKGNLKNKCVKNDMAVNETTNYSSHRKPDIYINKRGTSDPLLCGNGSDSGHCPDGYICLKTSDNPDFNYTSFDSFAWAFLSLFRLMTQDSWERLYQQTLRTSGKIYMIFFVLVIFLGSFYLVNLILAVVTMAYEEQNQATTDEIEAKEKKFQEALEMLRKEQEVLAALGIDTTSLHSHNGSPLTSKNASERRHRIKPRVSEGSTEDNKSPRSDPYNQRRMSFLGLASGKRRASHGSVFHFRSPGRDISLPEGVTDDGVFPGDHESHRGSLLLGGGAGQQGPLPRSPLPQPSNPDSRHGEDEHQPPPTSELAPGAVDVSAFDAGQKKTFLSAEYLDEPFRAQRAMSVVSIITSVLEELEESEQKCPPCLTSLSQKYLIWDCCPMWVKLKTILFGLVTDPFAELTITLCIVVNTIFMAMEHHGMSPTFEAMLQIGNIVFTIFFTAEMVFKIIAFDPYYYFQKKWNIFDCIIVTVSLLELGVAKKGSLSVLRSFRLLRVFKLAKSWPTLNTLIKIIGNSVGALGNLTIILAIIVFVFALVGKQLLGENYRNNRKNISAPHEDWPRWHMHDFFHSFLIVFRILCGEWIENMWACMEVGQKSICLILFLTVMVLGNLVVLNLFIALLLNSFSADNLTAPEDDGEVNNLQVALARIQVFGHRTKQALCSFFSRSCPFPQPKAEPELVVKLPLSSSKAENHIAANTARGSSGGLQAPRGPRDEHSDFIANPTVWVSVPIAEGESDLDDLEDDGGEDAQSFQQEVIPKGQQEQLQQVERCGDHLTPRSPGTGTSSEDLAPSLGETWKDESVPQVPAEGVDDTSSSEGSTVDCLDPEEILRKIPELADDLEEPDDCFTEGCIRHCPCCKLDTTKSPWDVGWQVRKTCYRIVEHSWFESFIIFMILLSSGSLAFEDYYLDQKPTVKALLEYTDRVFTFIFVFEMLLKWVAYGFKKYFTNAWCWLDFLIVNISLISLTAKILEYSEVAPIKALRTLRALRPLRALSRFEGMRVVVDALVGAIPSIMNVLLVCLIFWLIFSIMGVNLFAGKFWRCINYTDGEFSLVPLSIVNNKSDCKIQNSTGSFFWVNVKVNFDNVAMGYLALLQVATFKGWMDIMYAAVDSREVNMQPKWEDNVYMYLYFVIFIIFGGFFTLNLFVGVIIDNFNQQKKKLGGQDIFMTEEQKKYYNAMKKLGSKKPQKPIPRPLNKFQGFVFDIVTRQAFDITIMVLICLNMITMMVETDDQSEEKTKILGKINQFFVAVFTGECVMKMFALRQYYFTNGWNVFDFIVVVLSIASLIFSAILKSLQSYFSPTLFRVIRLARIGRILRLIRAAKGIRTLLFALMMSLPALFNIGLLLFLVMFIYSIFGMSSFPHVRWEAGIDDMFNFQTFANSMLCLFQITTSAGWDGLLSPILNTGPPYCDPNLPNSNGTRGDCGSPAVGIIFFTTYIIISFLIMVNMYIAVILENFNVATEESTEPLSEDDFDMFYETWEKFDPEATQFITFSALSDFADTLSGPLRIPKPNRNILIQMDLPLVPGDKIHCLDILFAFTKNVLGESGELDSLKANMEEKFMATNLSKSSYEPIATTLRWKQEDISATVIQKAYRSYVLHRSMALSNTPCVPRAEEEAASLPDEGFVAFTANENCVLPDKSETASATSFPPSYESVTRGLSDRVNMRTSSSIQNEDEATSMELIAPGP

Take `CNC(=O)c1ccc(-c2cc(Cl)cc(Cl)c2Cl)c(N)n1` [Example 1, 6-Amino-5-(2,3,5-trichloro-phenyl)-pyridine-2-carboxylic acid methylamide]: the IC50 was found to be 2040 nM.
